Patent US20090188860A1, “Use of antimicrobials in water technology” (priority 2006, published 2009)

Test system: bacteria
Experiment: bacterial presence in permeate and on membrane of a reverse osmosis module in a desalination process
Conditions: cellulose acetate membranes cast with 0.5% and 2.0% by weight of the antimicrobial agent, after a one month period of operation
Experimental: Cellulose acetate membranes were cast from a dope solution containing about 20% of a cellulose di- and -tri-acetate mixture and 0.5% and 2.0% by weight, respectively, of the antimicrobial agent of formula (3). The solvent is a mixture of dioxane and acetone (2:1; w/w).
Further, the cellulose acetate membranes were used in a reverse osmosis module in a desalination process.
The reverse osmosis module was tested to determine any bacterial presence in the permeate.

For Oc1cc(Cl)ccc1Oc1ccc(Cl)cc1 [formula (3), 4,4′-dichloro-2-hydroxydiphenylether], the “bacterial presence in the permeate and on the membrane” value was “no bacteria could be found”.
